According to ChEMBL document CHEMBL1151388, “Isolation and Structure of 14,15-Epoxyprieurianin From the South American Tree Guarea guidona” (1982):
Converted amounts (≈) assume the structure as drawn. The source made the active and inactive calls. The calls are words filed in the database; no cut-off is given here.

Experiments:
P388 [1] = experiment: Cytotoxicity against mouse P388 cells; type: functional; details: for EC50: read-out: ED50 (the source's name)
P388 [2] = experiment: In vivo cytotoxicity against mouse P388 cells up to 8 mg/kg; type: functional, organism-based; parameters: dose 8 mg/kg

SMILES | EC50 (P388 [1]) [µg/mL] | Activity (P388 [2]) | Activity (P388 [1])
C=C1[C@H]([C@]2(C)[C@@H](OC(C)=O)CC(=O)O[C@](C)(COC(C)=O)[C@@H]2CC(=O)OC)[C@@H](OC=O)[C@H](OC(=O)[C@H](O)[C@H](C)CC)[C@]2(C)[C@@H](c3ccoc3)C[C@@H]3O[C@]132 | 0.47 (≈ 0.629 µM) | – | –
C=C1[C@@H]([C@@]2(C)[C@@H](OC(C)=O)CC(=O)O[C@](C)(COC(C)=O)[C@@H]2C(=O)OC)[C@@H](OC=O)[C@H](OC(=O)[C@H](O)[C@H](C)CC)[C@@]2(C)[C@H](c3ccoc3)CC(=O)[C@]12O [PRIEURIANIN] | 4.4 (≈ 5.88 µM) | inactive | –
CC1(C)C(=O)C=C[C@]2(C)[C@H]3CC[C@@]4(C)[C@H](c5ccoc5)OC(=O)[C@H]5O[C@]54[C@]3(C)C(=O)C[C@@H]12 | – | – | inactive
